Measurements reported in US8785488B2 (Exelixis Patent Company LLC, priority 2009, dated 2014).

Target: T1, human TGR5 (h-TGR5) (Homo sapiens, UniProt Q8TDU6)
T1 construct: expressed in transfected cells
T1 sequence (Q8TDU6 1-330): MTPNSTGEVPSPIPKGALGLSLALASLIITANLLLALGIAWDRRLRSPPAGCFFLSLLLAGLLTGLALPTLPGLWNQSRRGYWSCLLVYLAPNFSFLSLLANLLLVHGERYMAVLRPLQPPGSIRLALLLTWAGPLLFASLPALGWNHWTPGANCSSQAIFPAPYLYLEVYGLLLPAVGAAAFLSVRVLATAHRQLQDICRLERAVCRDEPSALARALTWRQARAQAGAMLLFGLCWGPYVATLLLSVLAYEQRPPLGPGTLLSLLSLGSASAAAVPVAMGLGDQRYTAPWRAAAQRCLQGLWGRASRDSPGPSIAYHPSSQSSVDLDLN
Experiment: TGR5/CRE-Luciferiase Assay (HEK 293 hTGR5/CRE-Luc cells)
Type: cell-based
Settings: h-TGR5 CRE-Luc EC50, Table 1; read-out: CRE-Luc (EC50)
Experimental: Compounds were serially diluted in DMEM containing 5% DMSO and 5 μL of compound or media alone was transferred to each well and plates were incubated for 6 hours. Following incubation, 30 μL of lysis/luciferase buffer was added to each well. The luciferase activity was then measured on the EnVision™ plate reader and the dose response data was analyzed using ActivityBase.
In the following tables, EC50 values determined according to the TGR5 cAMP Assay described herein (cAMP); EC50 values determined according to the TGR5/CRE-Luciferiase Assay described herein (CRE-Luc). […] The following compounds in Tables 1 and 2 were made by using procedures described in the above Schemes and Examples, and, where applicable, by making any necessary substitutions of known materials that one skilled in the art would ordinarily understand how to do.

SMILES	EC50 [µM]
CC(C)(c1ccc(Cl)c(Cl)c1)c1cnc(COCc2ccc(F)cc2Cl)n1-c1ccc(F)cc1 [2-({[(2-chloro-4-fluorophenyl)methyl]oxy}methyl)-5-[1-(3,4-dichlorophenyl)-1-methylethyl]-1-(4-fluorophenyl)-1H-imidazole]	1 to 10
CCN(CC)CCOc1cc(C(C)(C)c2cnc(SCc3c(F)cccc3Cl)n2-c2ccc(F)cc2)ccc1Cl [2-[(2-chloro-5-{1-[2-{[(2-chloro-6-fluorophenyl)methyl]thio}-1-(4-fluorophenyl)-1H-imidazol-5-yl]-1-methylethyl}phenyl)oxy]-N,N-diethylethanamine]	0.1 to 1
CN(C)CCOc1ccc(C(C)(C)c2cnc(SCc3c(F)cccc3Cl)n2-c2ccc(F)cc2)cc1 [2-[(4-{1-[2-{[(2-chloro-6-fluorophenyl)methyl]thio}-1-(4-fluorophenyl)-1H-imidazol-5-yl]-1-methylethyl}phenyl)oxy]-N,N-dimethylethanamine]	1 to 10
CC(C)(c1ccc(OCCO)cc1)c1cnc(SCc2c(F)cccc2Cl)n1-c1ccc(F)cc1 [2-[(4-{1-[2-{[(2-chloro-6-fluorophenyl)methyl]thio}-1-(4-fluorophenyl)-1H-imidazol-5-yl]-1-methylethyl}phenyl)oxy]ethanol]	0.1 to 1
CC(C)(c1ccc(Cl)c(Cl)c1)c1cnc(/C=C/c2c(F)cccc2Cl)n1-c1ccc(F)cc1 [2-[(E)-2-(2-chloro-6-fluorophenyl)ethenyl]-5-[1-(3,4-dichlorophenyl)-1-methylethyl]-1-(4-fluorophenyl)-1H-imidazole]	1 to 10
CC(C)(c1ccc(Cl)c(Cl)c1)c1cnc(SCc2c(F)cccc2C(=O)O)n1-c1ccc(F)cc1 [2-[({5-[1-(3,4-dichlorophenyl)-1-methylethyl]-1-(4-fluorophenyl)-1H-imidazol-2-yl}thio)methyl]-3-fluorobenzoic acid]	0.1 to 1
CC(C)(c1ccc(Cl)c(Cl)c1)c1cnc(SCc2ccc(F)cc2S(N)(=O)=O)n1-c1ccc(F)cc1 [2-[({5-[1-(3,4-dichlorophenyl)-1-methylethyl]-1-(4-fluorophenyl)-1H-imidazol-2-yl}thio)methyl]-5-fluorobenzenesulfonamide]	0.1 to 1
CC(C)(c1ccc(Cl)c(Cl)c1)c1cnc(SCc2ccc(F)cc2C#N)n1-c1ccc(F)cc1 [2-[({5-[1-(3,4-dichlorophenyl)-1-methylethyl]-1-(4-fluorophenyl)-1H-imidazol-2-yl}thio)methyl]-5-fluorobenzonitrile]	0.1 to 1
CC(C)(c1ccc(Cl)c(Cl)c1)c1cnc(COc2ccc(C(N)=O)c(Cl)c2)n1-c1ccc(F)cc1 [2-chloro-4-[({5-[1-(3,4-dichlorophenyl)-1-methylethyl]-1-(4-fluorophenyl)-1H-imidazol-2-yl}methyl)oxy]benzamide]	1 to 10
CC(C)(c1ccc(Cl)c(Cl)c1)c1cnc(SCc2ccc(C(N)=O)c(Cl)c2)n1-c1ccc(F)cc1 [2-chloro-4-[({5-[1-(3,4-dichlorophenyl)-1-methylethyl]-1-(4-fluorophenyl)-1H-imidazol-2-yl}thio)methyl]benzamide]	0.1 to 1
CC(C)(c1ccc(Cl)c(Cl)c1)c1cnc(SCc2ccc(C(=N)N)c(Cl)c2)n1-c1ccc(F)cc1 [2-chloro-4-[({5-[1-(3,4-dichlorophenyl)-1-methylethyl]-1-(4-fluorophenyl)-1H-imidazol-2-yl}thio)methyl]benzenecarboximidamide]	1 to 10
CC(C)(c1ccc(Cl)c(Cl)c1)c1cnc(SCc2ccc(C#N)c(Cl)c2)n1-c1ccc(F)cc1 [2-chloro-4-[({5-[1-(3,4-dichlorophenyl)-1-methylethyl]-1-(4-fluorophenyl)-1H-imidazol-2-yl}thio)methyl]benzonitrile]	0.1 to 1
CC(C)(c1ccc(Cl)c(Cl)c1)c1cnc(SCc2ccc(Cl)c(C(=O)O)c2)n1-c1ccc(F)cc1 [2-chloro-5-[({5-[1-(3,4-dichlorophenyl)-1-methylethyl]-1-(4-fluorophenyl)-1H-imidazol-2-yl}thio)methyl]benzoic acid]	0.1 to 1
CC(C)(c1ccc(Cl)c(S(N)(=O)=O)c1)c1cnc(SCc2ccc(Cl)c(-c3nnn[nH]3)c2)n1-c1ccc(F)cc1 [2-chloro-5-{1-[2-({[4-chloro-3-(1H-tetrazol-5-yl)phenyl]methyl}thio)-1-(4-fluorophenyl)-1H-imidazol-5-yl]-1-methylethyl}benzenesulfonamide]	0.1 to 1
CC(c1ncc(C(C)(C)c2ccc(Cl)c(Cl)c2)n1-c1ccc(F)cc1)S(=O)(=O)c1ccc(F)cc1Cl (stereo not drawn) [2-{1-[(2-chloro-4-fluorophenyl)sulfonyl]ethyl}-5-[1-(3,4-dichlorophenyl)-1-methylethyl]-1-(4-fluorophenyl)-1H-imidazole]	1 to 10

The remaining lines, values ahead:

EC50 [µM]	SMILES
0.1 to 1	COc1ccc(C(C)(C)c2cnc(SCc3c(F)cccc3C(=O)O)n2-c2ccc(F)cc2)cc1OC [2-({[5-{1-[3,4-bis(methyloxy)phenyl]-1-methylethyl}-1-(4-fluorophenyl)-1H-imidazol-2-yl]thio}methyl)-3-fluorobenzoic acid]
1 to 10	COc1cc(C(C)(C)c2cnc(SCC3CCN(CCO)CC3)n2-c2ccc(F)cc2)ccc1Cl [2-[4-({[5-{1-[4-chloro-3-(methyloxy)phenyl]-1-methylethyl}-1-(4-fluorophenyl)-1H-imidazol-2-yl]thio}methyl)piperidin-1-yl]ethanol]
0.1 to 1	CC(C)(Oc1ccc(C(C)(C)c2cnc(SCc3ccc(F)cc3Cl)n2-c2ccc(F)cc2)cc1Cl)C(=O)O [2-[(2-chloro-4-{1-[2-{[(2-chloro-4-fluorophenyl)methyl]thio}-1-(4-fluorophenyl)-1H-imidazol-5-yl]-1-methylethyl}phenyl)oxy]-2-methylpropanoic acid]
0.1 to 1	CC(C)(c1ccc(Cl)c(Cl)c1)c1cnc(SCc2ccc(F)cc2C(N)=O)n1-c1ccc(F)cc1 [2-[({5-[1-(3,4-dichlorophenyl)-1-methylethyl]-1-(4-fluorophenyl)-1H-imidazol-2-yl}thio)methyl]-5-fluorobenzamide]
0.1 to 1	CC(C)(c1ccc(Cl)c(Cl)c1)c1cnc(SCc2ccc(F)cc2C(=O)O)n1-c1ccc(F)cc1 [2-[({5-[1-(3,4-dichlorophenyl)-1-methylethyl]-1-(4-fluorophenyl)-1H-imidazol-2-yl}thio)methyl]-5-fluorobenzoic acid]
0.1 to 1	CC(C)(c1ccc(Cl)c(Cl)c1)c1cnc(COc2ccc(Cl)c(S(N)(=O)=O)c2)n1-c1ccc(F)cc1 [2-chloro-5-[({5-[1-(3,4-dichlorophenyl)-1-methylethyl]-1-(4-fluorophenyl)-1H-imidazol-2-yl}methyl)oxy]benzenesulfonamide]
< 0.1	CC(C)(c1ccc(Cl)c(Cl)c1)c1cnc(SCc2ccc(Cl)c(C(N)=O)c2)n1-c1ccc(F)cc1 [2-chloro-5-[({5-[1-(3,4-dichlorophenyl)-1-methylethyl]-1-(4-fluorophenyl)-1H-imidazol-2-yl}thio)methyl]benzamide]
1 to 10	CC(C)(c1ccc(Cl)c(Cl)c1)c1cnc(SCc2ccc(Cl)c(C(=N)N)c2)n1-c1ccc(F)cc1 [2-chloro-5-[({5-[1-(3,4-dichlorophenyl)-1-methylethyl]-1-(4-fluorophenyl)-1H-imidazol-2-yl}thio)methyl]benzenecarboximidamide]
< 0.1	CC(C)(c1ccc(Cl)c(O)c1)c1cnc(SCc2c(F)cccc2Cl)n1-c1ccc(F)cc1 [2-chloro-5-{1-[2-{[(2-chloro-6-fluorophenyl)methyl]thio}-1-(4-fluorophenyl)-1H-imidazol-5-yl]-1-methylethyl}phenol]
